Here are results for 20 compounds from patent US9637484B2, “Cycloalkyl acid derivative, preparation method thereof, and pharmaceutical application thereof” (Shanghai Hengrui Pharmaceutical Co., Ltd., priority 2013, dated 2017).

The target of series [1] is hURAT1 (Homo sapiens (Human), UniProt Q96S37). Description: Assay for inhibiting URAT1: uptake of 14C-uric acid in HEK293/hURAT1 cells. Conditions: 14C-uric acid 11.57 μM, 12 minutes at room temperature. In kind it is cell-based. On the procedure: In vitro URAT1 assay can be used to identify compounds having potential activity for decreasing serum uric acid. In a suitable test, the vectors that encode human URAT1 (URAT1 cDNA: Guangzhou Copoeia EX-T4563-M02) were used to transfect cells (human embryonic kidney cells, HEK293: Cell Bank of the Chinese Academy of Sciences, GNHu18). The transfected cells—HEK293/hURAT1 cells—were obtained, then their uptake ability of radiolabeled uric acid was determined. The activity of the compounds as URAT1 inhibitors can be evaluated by the ability of the compounds to block the uptake of uric acid in the transfected cells.
The HEK293/hURAT1 cells in Eagle's minimal essential medium (EMEM) were inoculated in a 48-well plate that was coated with poly-D-lysine (Becton Dickinson, Catalog No. 356509), with an inoculation density of 10^5 cells/well, and incubated overnight. A reaction solution containing ^14C— uric acid (American Radioactive Compound, Catalog No. ARC 0513A) with a final concentration of 11.57 μM was prepared by the use or non-use of the test compounds in Hanks balanced salt solution (HBSS). The Hanks balanced salt solution (HBSS) contained 125 mM sodium gluconate, 4.8 mM potassium gluconate, 1.2 mM potassium dihydrogen phosphate, 1.2 mM magnesium sulfate, 1.3 mM calcium gluconate, 5.6 mM glucose and 25 mM HEPES (pH 7.3). After the medium was washed with the wash buffer (125 mM sodium gluconate, 10 mM HEPES, pH 7.3) for one time, the reaction solution prepared from the above step was added to each well and incubated at room temperature for 12 minutes. Then the reaction solution was removed, the cells were washed twice with the wash buffer and lysed with 0.2 M NaOH for 5 minutes. The cell lysate was transferred to a 96-well culture plate with a scintillation fluid (PerkinElmer, Catalog No. 1450-401), and counting of radioactivity was carried out on a Microbeta counter (PerkinElmer).
The test compounds were dissolved in DMSO, then DMSO with the same concentration was added to HEK293/hURAT1 cell wells without the test compounds. Cellular uptake of uric acid under various test conditions was expressed as average percentage inhibition rates in comparison to DMSO control. Radioactive values from the wells containing DMSO were considered as 100% uptake of the cells. IC50 values were calculated from the data of the inhibition rates at various concentrations.
The above assay was used to determine the biochemical activity of the compounds of the present invention for inhibiting hURAT1.

Series [2] is described as follows: Pharmacokinetics assay in SD rats, intragastric administration, plasma by LC/MS/MS. In kind it is in vivo, Sprague-Dawley (SD) rats. The note with it: 3.0 mg/kg; for Vd/F / AUC / CL/F / half-life / Cmax / MRT: both sexes, Sprague-Dawley, rat, plasma, po; for Vd/F: read-out: Apparent Distribution Volume Vz/F; for AUC: read-out: Area Under Curve AUC; for CL/F: read-out: Clearance CL/F; for half-life: read-out: Half-Life T½ (converted); for Cmax: read-out: Plasma Conc. Cmax; for MRT: read-out: Mean Residence Time MRT. On the procedure:
Sprague-Dawley (SD) rats were used as test animals. The compounds of Example 1, Example 2 and Example 3 were administered intragastrically to rats to determine the drug concentration in plasma at different time points by a LC/MS/MS method. The pharmacokinetic behavior of the compounds of the present invention was studied and evaluated in rats.
12 Healthy adult SD rats, half male and half female, purchased from SINO-BRITSH SIPPR/BK LAB. ANIMAL LTD., CO, Certificate No.: SCXK (Shanghai) 2008-0016, were divided into three groups, with 4 rats in each group.
The appropriate amounts of test compounds were weighed and mixed with 0.5% CMC-Na to prepare a 0.3 mg/mL suspension by an ultrasonic method.
After an overnight fast, 12 SD rats, half male and half female, were divided into 3 groups, with 4 rats in each group, and administered the compounds intragastrically at a dose of 3.0 mg/kg and an administration volume of 10 mL/kg.
Blood samples (0.1 mL) were taken from the orbital sinus before administration, and at 0.5 h, 1 h, 2 h, 4 h, 6 h, 8 h, 11 h, 24 h and 48 h after administration, stored in heparinized tubes, and centrifuged for 10 minutes at 3,500 rpm to separate blood plasma. The plasma samples were stored at −20° C.
The concentration of the test compounds in rat plasma after intragastrically administering the test compounds was analyzed by a LC-MS/MS method. The linearity range of the method is 2.0-5000 ng/ml, and the lower limit of quantification is 2.00 ng/ml. Plasma samples were analyzed after protein precipitation.

hURAT1, sequence (Q96S37 whole entry): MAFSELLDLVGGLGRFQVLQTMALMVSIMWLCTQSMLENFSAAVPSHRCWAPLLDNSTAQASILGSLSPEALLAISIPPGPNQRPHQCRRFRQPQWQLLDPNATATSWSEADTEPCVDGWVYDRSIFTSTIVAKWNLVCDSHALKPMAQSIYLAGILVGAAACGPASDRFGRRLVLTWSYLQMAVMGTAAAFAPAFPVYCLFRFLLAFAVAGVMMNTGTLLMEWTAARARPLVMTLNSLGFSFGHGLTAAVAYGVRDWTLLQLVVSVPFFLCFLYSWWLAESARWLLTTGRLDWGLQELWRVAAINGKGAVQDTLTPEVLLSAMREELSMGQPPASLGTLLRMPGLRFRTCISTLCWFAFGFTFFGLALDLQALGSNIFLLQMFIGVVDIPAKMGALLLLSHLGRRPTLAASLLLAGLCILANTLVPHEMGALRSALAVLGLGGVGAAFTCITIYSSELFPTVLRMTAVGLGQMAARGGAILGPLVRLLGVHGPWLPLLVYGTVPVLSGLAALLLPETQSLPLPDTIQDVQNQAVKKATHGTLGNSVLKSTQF

`COC(=O)COc1ccc2nccc(SC3(C(=O)O)CCC3)c2c1` [Example 13, 1-((6-(2-methoxy-2-oxoethoxy)quinolin-4-yl)thio)cyclobutanecarboxylic acid]: in series [1], the IC50 (commonly the concentration at which inhibition is half-maximal) came to 164 nM.
In turn, `O=C(O)C1(Sc2ccnc3ccc(-c4cccc(C(F)(F)F)c4)cc23)CCC1` [Example 8, 1-((6-(3-(trifluoromethyl)phenyl)quinolin-4-yl)thio)cyclobutanecarboxylic acid] came in with an IC50 in series [1] of 359 nM.
The same measure, in the same setting: in the case of `N#Cc1ccc2nccc(SC3(C(=O)O)CCC3)c2c1` [Example 17, 1-((6-cyanoquinolin-4-yl)thio)cyclobutanecarboxylic acid] it was 398 nM.
In turn, `COCc1ccc2nccc(SC3(C(=O)O)CCC3)c2c1` [Example 9, 1-((6-(methoxymethyl)quinolin-4-yl)thio)cyclobutanecarboxylic acid] returned an IC50 in series [1] of 197 nM.
As for `O=C(O)C1(Sc2ccnc3ccc(C(F)(F)F)cc23)CCC1` [Example 2, 1-((6-(trifluoromethyl)quinolin-4-yl)thio)cyclobutanecarboxylic acid], half-maximal inhibition in series [1] (IC50) required 61 nM. In series [2], the “Mean Residence Time MRT” value was found to be 12.9 ± 5.8 h; the Vd/F came out at 1.21 ± 0.674 L/kg; the AUC (commonly the area under the concentration-time curve, a measure of exposure) turned out to be 38200 ± 25100 ng·h/mL; the CL/F was 1.95 ± 1.31 mL/min/kg. In series [2], the half-life (usually the time in which the quantity being followed falls by half) was 8.83 ± 4.04 h and the Cmax (usually the maximum level reached in the sampled fluid or tissue) turned out to be 2710 ± 919 ng/mL.
Regarding `O=C(O)C1(Sc2ccnc3ccc(Br)cc23)CCCC1` [Example 32, 1-((6-bromoquinolin-4-yl)thio)cyclopentanecarboxylic acid], the IC50 in series [1] was 352 nM.
With `N#CCOc1ccc2nccc(SC3(C(=O)O)CCC3)c2c1` [Example 24, 1-((6-(cyanomethoxy)quinolin-4-yl)thio)cyclobutanecarboxylic acid], inhibition in series [1] was half-maximal at 680 nM (IC50).
`COc1ccc2nccc(SC3(C(=O)O)CCC3)c2c1` [Example 4, 1-((6-methoxyquinolin-4-yl)thio)cyclobutanecarboxylic acid] registered an IC50 in series [1] of 343 nM.
Still for that read-out and setting: the same measure for `COCCOc1ccc2nccc(SC3(C(=O)O)CCC3)c2c1` [Example 5, 1-((6-(2-methoxyethoxy)quinolin-4-yl)thio)cyclobutanecarboxylic acid]: 207 nM; for `O=C(O)C1(Sc2ccnc3ccc(-c4ccc(F)cc4)cc23)CCC1` [Example 7, 1-((6-(4-fluorophenyl)quinolin-4-yl)thio)cyclobutanecarboxylic acid]: 159 nM.
Still for that read-out and setting: in the case of `O=C(O)C1(Sc2ccnc3ccc(C4CC4)cc23)CCC1` [Example 23, 1-((6-cyclopropylquinolin-4-yl)thio)cyclobutanecarboxylic acid] it was 658 nM.
The compound `O=C(O)C1(Sc2ccnc3ccccc23)CCC1` [Example 1, 1-(quinolin-4-ylthio)cyclobutanecarboxylic acid] yielded an IC50 in series [1] of 251 nM. Moreover, in series [2], the Vd/F was 0.652 ± 0.333 L/kg, the AUC amounted to 20700 ± 5270 ng·h/mL, the CL/F is 2.54 ± 0.68 mL/min/kg and the half-life is 2.84 ± 0.65 h. In addition, in series [2], the MRT – broadly, the average time that molecules of a dose stay in the body – worked out at 3.15 ± 0.82 h and the Cmax was 8800 ± 1760 ng/mL.
Compound `O=C(O)C1(Sc2ccnc3ccc(-c4cccc(F)c4)cc23)CCC1` [Example 6, 1-((6-(3-fluorophenyl)quinolin-4-yl)thio)cyclobutanecarboxylic acid] showed an IC50 in series [1] of 332 nM.
On the same count and under the same terms, the same measure for `O=C(O)C1(Sc2ccnc3ccc(Br)cc23)CC1` [Example 33, 1-((6-bromoquinolin-4-yl)thio)cyclopropanecarboxylic acid]: 324 nM; for `N#Cc1ccc(SC2(C(=O)O)CCC2)c2ccccc12` [Example 10, 1-((4-cyanonaphthalen-1-yl)thio)cyclobutanecarboxylic acid]: 926 nM.
The same measure, in the same setting: in the case of `O=C(O)C1(Sc2ccnc3cc(Br)ccc23)CCC1` [Example 31, 1-((7-bromoquinolin-4-yl)thio)cyclobutanecarboxylic acid] it was 129 nM.
The compound `O=C(O)C1(Sc2ccnc3ccc(Br)cc23)CCC1` [Example 3, 1-((6-bromoquinolin-4-yl)thio)cyclobutanecarboxylic acid] yielded an IC50 in series [1] of 19 nM. Further, in series [2], the Vd/F stood at 0.878 ± 0.335 L/kg, the AUC came to 28400 ± 8540 ng·h/mL, the CL/F was 1.89 ± 0.59 mL/min/kg and the half-life was 5.35 ± 1.12 h. In addition, in series [2], the MRT turned out to be 8.15 ± 1.3 h and the Cmax was 3470 ± 854 ng/mL.
Consider `O=C(O)C1(Sc2ccnc3ccc(F)cc23)CCC1` [Example 12, 1-((6-fluoroquinolin-4-yl)thio)cyclobutanecarboxylic acid], for which the IC50 in series [1] was found to be 557 nM.
The same measure, in the same setting: in the case of `Cc1ccc2nccc(SC3(C(=O)O)CCC3)c2c1` [Example 30, 1-((6-methylquinolin-4-yl)thio)cyclobutanecarboxylic acid] it was 343 nM.
On the same count and under the same terms, the same measure for `O=C(O)C1(Sc2ccnc3ccc(-c4ccccc4C(F)(F)F)cc23)CCC1` [Example 22, 1-((6-(2-(trifluoromethyl)phenyl)quinolin-4-yl)thio)cyclobutanecarboxylic acid]: 115 nM.
